# From patent US6054459A, “Substituted 1,2,3,4-tetrahydro-5-nitro-pyrimidines” (priority 1994, dated 2000)
# Tested on: not listed separately
# Experiment: lg P (physical data)
# Details: not given
row,logP,Compound
1,1.6,COC(C)(C)CNC(=O)OCCCCCCN1CC([N+](=O)[O-])=C2N(Cc3ccc(Cl)nc3)CCN2C1 [Example 57]
2,1.98,CC(C)(C)C(=O)OCCNC(=O)OCCCCCCN1CC([N+](=O)[O-])=C2N(Cc3ccc(Cl)nc3)CCN2C1 [Example 52]
3,1.2,COCCOCCNC(=O)OCCCCN1CC([N+](=O)[O-])=C2N(Cc3ccc(Cl)nc3)CCN2C1 [Example 58]
4,1.44,CCOCCOCCNC(=O)OCCCCCN1CC([N+](=O)[O-])=C2N(Cc3ccc(Cl)nc3)CCN2C1 [Example 35]
5,0.94,O=[N+]([O-])C1=C2N(Cc3cnc(Cl)s3)CCN2CN(CCCCCCO)C1 [II-15]
6,2.09,O=C(Nc1ccc(Cl)cc1)OCCCCCN1CC([N+](=O)[O-])=C2N(Cc3ccc(Cl)nc3)CCN2C1 [Example 41]
7,1.63,CCCCNC(=O)OC(C)CN1CC([N+](=O)[O-])=C2N(Cc3ccc(Cl)nc3)CCN2C1 (centres unmarked) [Example 75]
8,1.63,CCOCCOCCNC(=O)OCCCCCCN1CC([N+](=O)[O-])=C2N(Cc3ccc(Cl)nc3)CCN2C1 [Example 47]
9,2.71,O=C(Nc1ccc(SC(F)(F)F)cc1)OCCCCCCN1CC([N+](=O)[O-])=C2N(Cc3ccc(Cl)nc3)CCN2C1 [Example 56]
10,1.73,CC(C)(C)C(=O)OCCNC(=O)OCCCCN1CC([N+](=O)[O-])=C2N(Cc3ccc(Cl)nc3)CCN2C1 [Example 63]
11,1.26,CCOCCOCCNC(=O)OCCN1CC([N+](=O)[O-])=C2N(Cc3ccc(Cl)nc3)CCN2C1 [Example 32]
12,2.01,CC(C)(C)CNC(=O)OCCCCCN1CC([N+](=O)[O-])=C2N(Cc3ccc(Cl)nc3)CCN2C1 [Example 43]
13,2.26,CC(COC(C)(C)C)NC(=O)OCCN1CC([N+](=O)[O-])=C2N(Cc3ccc(Cl)nc3)CCN2C1 (centres unmarked) [Example 33]
14,1.73,CCCCNC(=O)OCCCCCN1CC([N+](=O)[O-])=C2N(Cc3cnc(Cl)s3)CCN2C1 [Example 78]
15,2.27,O=C(Nc1ccc(Cl)cc1)OCCCCCCN1CC([N+](=O)[O-])=C2N(Cc3ccc(Cl)nc3)CCN2C1 [Example 53]
16,1.75,CC(C)(C)CNC(=O)OCCCCN1CC([N+](=O)[O-])=C2N(Cc3ccc(Cl)nc3)CCN2C1 [Example 66]
17,2.05,CC(C)(C)CNC(=O)OCCCCCCN1CC([N+](=O)[O-])=C2N(Cc3ccc(Cl)nc3)CCN2C1 [Example 55]
18,1.11,COCCNC(=O)OCCCN1CC([N+](=O)[O-])=C2N(Cc3ccc(Cl)nc3)CCN2C1 [Example 31]
19,2.22,O=C(Nc1ccc(S(=O)(=O)C(F)(F)F)cc1)OCCCCN1CC([N+](=O)[O-])=C2N(Cc3ccc(Cl)nc3)CCN2C1 [Example 60]
20,1.56,COC(C)(C)CNC(=O)OCCCCCN1CC([N+](=O)[O-])=C2N(Cc3ccc(Cl)nc3)CCN2C1 [Example 45]

row,logP,Compound
1,1.28,COCCOCCNC(=O)OCCCCCN1CC([N+](=O)[O-])=C2N(Cc3ccc(Cl)nc3)CCN2C1 [Example 34]
2,2.51,O=C(Nc1ccc(S(=O)(=O)C(F)(F)F)cc1)OCCCCCCN1CC([N+](=O)[O-])=C2N(Cc3ccc(Cl)nc3)CCN2C1 [Example 49]
3,1.24,COCCNC(=O)OCCCCCN1CC([N+](=O)[O-])=C2N(Cc3ccc(Cl)nc3)CCN2C1 [Example 36]
4,1.44,COCCNC(=O)OCCCCCCN1CC([N+](=O)[O-])=C2N(Cc3ccc(Cl)nc3)CCN2C1 [Example 48]
5,1.53,O=C(Nc1ccc(Cl)c(Cl)c1)OCCCCN1CC([N+](=O)[O-])=C2N(Cc3ccc(Cl)nc3)CCN2C1 [Example 65]
6,1.79,O=C(Nc1ccccc1)OCCCCCN1CC([N+](=O)[O-])=C2N(Cc3ccc(Cl)nc3)CCN2C1 [Example 38]
7,2.59,O=C(Nc1ccc(Cl)c(Cl)c1)OCCCCCCN1CC([N+](=O)[O-])=C2N(Cc3ccc(Cl)nc3)CCN2C1 [Example 54]
8,2.29,O=C(Nc1ccc(S(=O)(=O)C(F)(F)F)cc1)OCCCCCN1CC([N+](=O)[O-])=C2N(Cc3ccc(Cl)nc3)CCN2C1 [Example 37]
9,1.72,O=C(Nc1ccccc1)OCCCCN1CC([N+](=O)[O-])=C2N(Cc3ccc(Cl)nc3)CCN2C1 [Example 61]
10,1.47,COCCOCCNC(=O)OCCCCCCN1CC([N+](=O)[O-])=C2N(Cc3ccc(Cl)nc3)CCN2C1 [Example 46]
11,2.01,O=C(Nc1ccccc1)OCCCCCCN1CC([N+](=O)[O-])=C2N(Cc3ccc(Cl)nc3)CCN2C1 [Example 50]
12,1.81,CC(C)(C)C(=O)OCCNC(=O)OCCCCCN1CC([N+](=O)[O-])=C2N(Cc3ccc(Cl)nc3)CCN2C1 [Example 40]
13,1.47,CC(=O)OCCNC(=O)OCCCCCCN1CC([N+](=O)[O-])=C2N(Cc3ccc(Cl)nc3)CCN2C1 [Example 51]
14,1.22,CC(=O)OCCNC(=O)OCCCCN1CC([N+](=O)[O-])=C2N(Cc3ccc(Cl)nc3)CCN2C1 [Example 62]
15,1.36,CCOCCOCCNC(=O)OCCCCN1CC([N+](=O)[O-])=C2N(Cc3ccc(Cl)nc3)CCN2C1 [Example 59]
16,0.71,O=[N+]([O-])C1=C2N(Cc3cnc(Cl)s3)CCN2CN(CCCCCO)C1 [II-16]
17,1.9,CC(C)(C)NC(=O)OCCCCCCN1CC([N+](=O)[O-])=C2N(Cc3cnc(Cl)s3)CCN2C1 [Example 79]
18,0.82,CC(=O)OCCNC(=O)OCCCCCN1CC([N+](=O)[O-])=C2N(Cc3ccc(Cl)nc3)CCN2C1 [Example 39]
19,2.74,O=C(Nc1ccc(SC(F)(F)F)cc1)OCCCCCN1CC([N+](=O)[O-])=C2N(Cc3ccc(Cl)nc3)CCN2C1 [Example 44]

# Tested on: Plutella maculipennis
# Experiment: Plutella test
# Assay type: in vivo, Plutella maculipennis (diamond-back moth)
# Details: 72 h, active compound concentration 0.01 %, after 3d, read-out: Degree of destruction in % after 3d
# Procedure: Solvent: 7 parts by weight of dimethylformamide
# Emulsifier: 1 part by weight of alkylaryl polyglycol ether
# To produce a suitable preparation of active compound, 1 part by weight of active compound is mixed with the stated amount of solvent and the stated amount of emulsifier, and the concentrate is diluted with water to the desired concentration.
# Cabbage leaves (Brassica oleracea) are treated by being dipped into the preparation of active compound of the desired concentration and are infested with caterpillars of the diamond-back moth (Plutella maculipennis) while the leaves are still moist.
# After the desired period of time, the destruction in % is determined. 100% means that all the caterpillars have been killed; 0% means that none of the caterpillars have been killed.
row,Compound,mortality at 0.01 %
1,CC(C)(C)CNC(=O)OCCCN1CC([N+](=O)[O-])=C2N(Cc3ccc(Cl)nc3)CCN2C1,100%
2,O=C(NCCCCCCCl)OCCCN1CC([N+](=O)[O-])=C2N(Cc3ccc(Cl)nc3)CCN2C1 [drawing 132],100%
3,O=C(NCCN1CC([N+](=O)[O-])=C2N(Cc3ccc(Cl)nc3)CCN2C1)OCc1ccccc1 [drawing 127],100%

# Same assay, conditions: 72 h, active compound concentration 0.1 %, after 3d, read-out: Degree of destruction in % after 3d
row,Compound,mortality at 0.1 %
1,CC(C)(C)CNC(=O)OCCCN1CC([N+](=O)[O-])=C2N(Cc3ccc(Cl)nc3)CCN2C1,100%
2,O=C(NCCCCCCCl)OCCCN1CC([N+](=O)[O-])=C2N(Cc3ccc(Cl)nc3)CCN2C1 [drawing 132],100%
3,O=C(NCCN1CC([N+](=O)[O-])=C2N(Cc3ccc(Cl)nc3)CCN2C1)OCc1ccccc1 [drawing 127],100%

# Same assay, conditions: 72 h, read-out: Degree of destruction in % after 3d
Compound,mortality at 0.01 %,mortality at 0.1 %
CC(=O)NCCN1CC([N+](=O)[O-])=C2N(Cc3ccc(Cl)nc3)CCN2C1 [drawing 125],100%,100%
CC(=O)OCCN1CC([N+](=O)[O-])=C2N(Cc3ccc(Cl)nc3)CCN2C1,100%,100%
CNC(=O)OCCCN1CC([N+](=O)[O-])=C2N(Cc3ccc(Cl)nc3)CCN2C1 [drawing 128],100%,100%
CCOC(=O)NCCN1CC([N+](=O)[O-])=C2N(Cc3ccc(Cl)nc3)CCN2C1 [drawing 124],100%,100%
CC(=O)OCCCN1CC([N+](=O)[O-])=C2N(Cc3ccc(Cl)nc3)CCN2C1 [drawing 129],100%,100%
CCOC(=O)NCCCN1CC([N+](=O)[O-])=C2N(Cc3ccc(Cl)nc3)CCN2C1 [drawing 126],100%,100%
CC(C)(C)OC(=O)NCCN1CC([N+](=O)[O-])=C2N(Cc3ccc(Cl)nc3)CCN2C1 [drawing 123],100%,100%
